Assay: xn = mol fraction of the nth substance listed

CCCOCC(C)O (stereo not drawn) + CCN(CC)CC
viscosity [mPa·s], 100 kPa
Details | 298.15 K | 303.15 K | 308.15 K
x1 = 0.0502 | 0.4177 | 0.3933 | 0.3699
x1 = 0.1001 | 0.4846 | 0.4496 | 0.4206
x1 = 0.1501 | 0.5523 | 0.5096 | 0.476
x1 = 0.2016 | 0.6258 | 0.5726 | 0.5332
x1 = 0.3 | 0.7805 | 0.7042 | 0.6523
x1 = 0.4 | 0.9537 | 0.8515 | 0.7863
x1 = 0.5 | 1.153 | 1.017 | 0.9326
x1 = 0.5998 | 1.382 | 1.207 | 1.102
x1 = 0.6999 | 1.625 | 1.406 | 1.281
x1 = 0.7996 | 1.887 | 1.629 | 1.474
x1 = 0.8998 | 2.169 | 1.87 | 1.682
x1 = 0.9499 | 2.304 | 1.973 | 1.775

CCCOCC(C)O (stereo not drawn) + CCNCC
viscosity [mPa·s], 100 kPa
Details | 298.15 K | 303.15 K | 308.15 K
x1 = 0.0509 | 0.3488 | 0.3318 | 0.3107
x1 = 0.1002 | 0.3949 | 0.3733 | 0.3489
x1 = 0.1505 | 0.4552 | 0.4261 | 0.4014
x1 = 0.2 | 0.519 | 0.4819 | 0.4542
x1 = 0.3003 | 0.6838 | 0.6321 | 0.5992
x1 = 0.4 | 0.8976 | 0.8055 | 0.7606
x1 = 0.5002 | 1.171 | 1.034 | 0.9506
x1 = 0.5999 | 1.436 | 1.264 | 1.15
x1 = 0.7 | 1.742 | 1.514 | 1.365
x1 = 0.7982 | 2.014 | 1.738 | 1.562
x1 = 0.9 | 2.265 | 1.94 | 1.739
x1 = 0.9496 | 2.361 | 2.021 | 1.814

C1COCO1 + CCO
303.15 K, 101 kPa
Details | viscosity [mPa·s]
x1 = 0.06463 | 0.898
x1 = 0.1346 | 0.838
x1 = 0.2104 | 0.7691
x1 = 0.2931 | 0.6852
x1 = 0.3834 | 0.6333
x1 = 0.4826 | 0.6121
x1 = 0.592 | 0.591
x1 = 0.7133 | 0.5886
x1 = 0.8484 | 0.569

C=CCN(CC=C)C(=O)C(Cl)Cl + CCO
viscosity [mPa·s], 101 kPa
Details | x1 = 0.004764 | x1 = 0.01126 | x1 = 0.01785 | x1 = 0.02455 | x1 = 0.03127 | x1 = 0.03725 | x1 = 0.04407
293.15 K | 1.208 | 1.238 | 1.258 | 1.284 | 1.314 | 1.334 | 1.372
298.15 K | 1.108 | 1.134 | 1.162 | 1.178 | 1.201 | 1.215 | 1.245
303.15 K | 1.008 | 1.025 | 1.043 | 1.062 | 1.08 | 1.1 | 1.116
308.15 K | 0.9132 | 0.9322 | 0.9453 | 0.9641 | 0.9854 | 0.9997 | 1.02
313.15 K | 0.832 | 0.8475 | 0.8596 | 0.8743 | 0.8941 | 0.9139 | 0.9264

CCCOCC(C)O (stereo not drawn) + CCO
viscosity [mPa·s], 101.33 kPa
Details | 298.15 K | 308.15 K | 318.15 K
x1 = 0.05 | 1.18 | 0.974 | 0.813
x1 = 0.1 | 1.272 | 1.041 | 0.863
x1 = 0.15 | 1.363 | 1.108 | 0.911
x1 = 0.2 | 1.448 | 1.171 | 0.96
x1 = 0.25 | 1.534 | 1.231 | 1.005
x1 = 0.3 | 1.612 | 1.288 | 1.046
x1 = 0.35 | 1.716 | 1.362 | 1.105
x1 = 0.4 | 1.79 | 1.417 | 1.142
x1 = 0.45 | 1.862 | 1.467 | 1.177
x1 = 0.5 | 1.928 | 1.513 | 1.21
x1 = 0.55 | 1.998 | 1.557 | 1.241
x1 = 0.6 | 2.056 | 1.602 | 1.274
x1 = 0.65 | 2.113 | 1.651 | 1.297
x1 = 0.7 | 2.168 | 1.674 | 1.322
x1 = 0.75 | 2.219 | 1.706 | 1.345
x1 = 0.8 | 2.264 | 1.734 | 1.368
x1 = 0.8498 | 2.307 | 1.766 | 1.389
x1 = 0.9 | 2.354 | 1.79 | 1.406
x1 = 0.95 | 2.369 | 1.815 | 1.414
